Columns and labels:
[1] = target: T1, Stimulator of interferon genes protein (Homo sapiens, UniProt Q86WV6); assay: Agonist activity at STING in human THP1-Dual cells incubated for 20 hrs by Quanti-luc reagent based assay; type: cell-based
[2] = target: T1, Stimulator of interferon genes protein; assay: Agonist activity at STING in human […] KO-STING cells incubated for 20 hrs by Quanti-luc reagent based assay; type: cell-based, THP1-Dual KO-STING
THP1-Dual = assay: Cytotoxicity against human THP1-Dual habouring STING assessed as inhibition of cell growth by MTS assay; type: functional, cell-based
[3] = Cytotoxicity against human THP1-Dual KO-STING cells assessed as inhibition of cell growth by MTS assay; type: functional, cell-based

T1 sequence (Q86WV6 whole entry): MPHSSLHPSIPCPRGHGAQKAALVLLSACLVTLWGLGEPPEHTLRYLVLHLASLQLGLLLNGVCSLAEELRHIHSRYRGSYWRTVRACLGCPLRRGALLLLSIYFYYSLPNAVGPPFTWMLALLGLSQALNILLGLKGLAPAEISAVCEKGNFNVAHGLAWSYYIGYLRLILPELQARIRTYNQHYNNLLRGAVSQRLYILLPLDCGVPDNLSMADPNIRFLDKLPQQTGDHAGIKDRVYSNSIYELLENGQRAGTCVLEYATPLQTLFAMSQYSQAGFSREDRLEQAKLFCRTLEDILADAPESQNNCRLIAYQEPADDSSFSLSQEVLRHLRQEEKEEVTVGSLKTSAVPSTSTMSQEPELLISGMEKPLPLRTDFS

CCn1nc(C)cc1C(=O)Nc1nc2cc(C(N)=O)cc(OCCCOC)c2n1NCCCNC(=O)c1ccc2ccccc2c1
EC50 [1]: 0.53 µM | EC50 [2]: > 100 µM | IC50 (THP1-Dual): 10.6 µM | IC50 [3]: 14.8 µM

CCn1nc(C)cc1C(=O)Nc1nc2cc(C(N)=O)cc(OC)c2n1CCCC(=O)NCc1ccccc1
EC50 [1]: 4.13 µM | EC50 [2]: > 100 µM | IC50 (THP1-Dual): > 100 µM | IC50 [3]: > 100 µM

CCn1nc(C)cc1C(=O)Nc1nc2cc(C(N)=O)cc(OC)c2n1C/C=C/CNC(=O)c1ccc(F)cc1
EC50 [1]: > 100 µM | EC50 [2]: > 100 µM | IC50 (THP1-Dual): > 100 µM | IC50 [3]: > 100 µM

CCn1nc(C)cc1C(=O)Nc1nc2cc(C(N)=O)cc(OC)c2n1NCCCC(=O)NCc1ccc(-c2ccccc2)cc1
EC50 [1]: 40.9 µM | EC50 [2]: > 100 µM | IC50 (THP1-Dual): > 100 µM | IC50 [3]: > 100 µM

CCn1nc(C)cc1C(=O)Nc1nc2cc(C(N)=O)cc(OC)c2n1CCOCCNC(=O)c1ccc(OC)cc1
EC50 [1]: > 100 µM | EC50 [2]: > 100 µM | IC50 (THP1-Dual): > 100 µM | IC50 [3]: > 100 µM

CCn1nc(C)cc1C(=O)Nc1nc2cc(C(N)=O)cc(OC)c2n1C/C=C/CNC(=O)c1ccccc1
EC50 [1]: 47.1 µM | EC50 [2]: > 100 µM | IC50 (THP1-Dual): > 100 µM | IC50 [3]: > 100 µM

CCn1nc(C)cc1C(=O)Nc1nc2cc(C(N)=O)cc(OC)c2n1C/C=C/CNC(=O)C1CCCCC1
EC50 [1]: > 100 µM | EC50 [2]: > 100 µM | IC50 (THP1-Dual): > 100 µM | IC50 [3]: > 100 µM

CCn1nc(C)cc1C(=O)Nc1nc2cc(C(N)=O)cc(OC)c2n1NCCCNC(=O)NCc1ccc2ccccc2c1
EC50 [1]: > 100 µM | EC50 [2]: > 100 µM | IC50 (THP1-Dual): > 100 µM | IC50 [3]: > 100 µM

CCn1nc(C)cc1C(=O)Nc1nc2cc(C(N)=O)cc(OCCCN3CCOCC3)c2n1NCCCC(=O)NCc1ccc(F)cc1
EC50 [1]: 9.73 µM | EC50 [2]: > 100 µM | IC50 (THP1-Dual): > 100 µM | IC50 [3]: > 100 µM

CCn1nc(C)cc1C(=O)Nc1nc2cc(C(N)=O)cc(OC)c2n1C/C=C/CNC(=O)c1ccoc1
EC50 [1]: > 100 µM | EC50 [2]: > 100 µM | IC50 (THP1-Dual): > 100 µM | IC50 [3]: > 100 µM

CCn1nc(C)cc1C(=O)Nc1nc2cc(C(N)=O)cc(OC)c2n1CCCC(=O)NCc1ccc2ccccc2c1
EC50 [1]: 7.04 µM | EC50 [2]: > 100 µM | IC50 (THP1-Dual): > 100 µM | IC50 [3]: > 100 µM

CCn1nc(C)cc1C(=O)Nc1nc2cc(C(N)=O)cc(OC)c2n1CCCNC(=O)c1ccc2ccccc2c1
EC50 [1]: 0.93 µM | EC50 [2]: > 100 µM | IC50 (THP1-Dual): 10.8 µM | IC50 [3]: > 100 µM

CCn1nc(C)cc1C(=O)Nc1nc2cc(C(N)=O)cc(OC)c2n1C/C=C/CNC(=O)c1cnc2ccccc2c1
EC50 [1]: > 100 µM | EC50 [2]: > 100 µM | IC50 (THP1-Dual): > 100 µM | IC50 [3]: > 100 µM

CCn1nc(C)cc1C(=O)Nc1nc2cc(C(N)=O)cc(OC)c2n1NCCCC(=O)NCc1ccc(Cl)cc1
EC50 [1]: 3.22 µM | EC50 [2]: > 100 µM | IC50 (THP1-Dual): > 100 µM | IC50 [3]: > 100 µM

CCn1nc(C)cc1C(=O)Nc1nc2cc(C(N)=O)cc(OC)c2n1CCCN1CCN(C(=O)c2ccc3ccccc3c2)CC1
EC50 [1]: > 100 µM | EC50 [2]: > 100 µM | IC50 (THP1-Dual): > 100 µM | IC50 [3]: > 100 µM

CCn1nc(C)cc1C(=O)Nc1nc2cc(C(N)=O)cc(OC)c2n1C/C=C/Cn1c(=O)[nH]c2cc(C(N)=O)ccc21
EC50 [1]: > 100 µM | EC50 [2]: > 100 µM | IC50 (THP1-Dual): > 100 µM | IC50 [3]: > 100 µM

CCn1nc(C)cc1C(=O)Nc1nc2cc(C(N)=O)cc(OC)c2n1C/C=C/CNc1ccc(C(N)=O)cc1[N+](=O)[O-]
EC50 [1]: > 100 µM | EC50 [2]: > 100 µM | IC50 (THP1-Dual): > 100 µM | IC50 [3]: > 100 µM

CCn1nc(C)cc1C(=O)Nc1nc2cc(C(N)=O)cc(OCC3CC3)c2n1NCCCC(=O)NCc1ccc(F)cc1
EC50 [1]: 1.42 µM | EC50 [2]: > 100 µM | IC50 (THP1-Dual): > 100 µM | IC50 [3]: > 100 µM

CCn1nc(C)cc1C(=O)Nc1nc2cc(C(N)=O)cc(OC)c2n1NCCCC(=O)NCc1cc(F)cc(F)c1
EC50 [1]: 5.14 µM | EC50 [2]: > 100 µM | IC50 (THP1-Dual): > 100 µM | IC50 [3]: > 100 µM

CCn1nc(C)cc1C(=O)Nc1nc2cc(C(N)=O)cc(OC)c2n1C/C=C/CNC(=O)c1ccc(C(F)(F)F)cc1
EC50 [1]: > 100 µM | EC50 [2]: > 100 µM | IC50 (THP1-Dual): > 100 µM | IC50 [3]: > 100 µM

— ChEMBL document CHEMBL5331071, “Structure-activity relationship study of amidobenzimidazole derivatives as stimulator of interferon genes (STING) agonists” (Eur J Med Chem, 2023)
